Laboratory results as given in patent publication US20070190520A1, “METHOD OF CHARACTERIZING A BIOLOGICALLY ACTIVE COMPOUND” (priority 2006, published 2007).

System: Adult stem cells from peripheral blood (CD34+/CD38−)
Assay: viability and cell number of peripheral blood stem cells expanded in a rotatable TVEMF bioreactor (Example 4)
Type: cell-based
Settings: 20 ppm added at initiation, end of 14 days, Sample 2 cells from an individual with known liver damage
Protocol: The rotatable bioreactor may preferably be filled with culture medium consisting of Isocove's modified Dulbecco's medium (IMDM) (GIBCO, Grand Island N.Y.), supplemented with 5% human albumin, 100 ng/ml recombinant human G-CSF (Amgen Inc., Thousand Oaks, Calif.), and 100 ng/ml recombinant human stem cell factor (SCF) (Amgen). In addition, D-Penicillamine [D(−)-2-Amino-3-mercapto-3-methylbutonoic acid] (Sigma-Aldrich) a copper chelating agent, dissolved in DMSO, may preferably be introduced to the culture medium in the rotatable bioreactor in an amount of 10 ppm. Adult stem cells from peripheral blood (CD34+/CD38−) may preferably be placed in the culture chamber of the rotatable bioreactor at a concentration of 0.75×10^6 cells/ml.
Two samples of peripheral blood stem cells should preferably be prepared by this method. Sample 1 should preferably be from an individual with no known liver damage. Sample 2 should preferably be from an individual with known liver damage. The samples should be prepared as above and placed in two different rotatable bioreactors under the conditions noted in Example 1 and at the same concentrations.

For `CC(=O)Nc1ccc(O)cc1` [acetaminophen], the “viability and number of cells counted” value was “neither die nor grow, but rather, remain unchanged”.
